This note sets out measurements from patent US7582653B2, “Mercaptophenyl naphthyl methane compounds and synthesis thereof” (Council of Scientific & Industrial Research, priority 2003, dated 2009).

Structures are written as SMILES.

Data set [1] concerns chick fetal bones in culture. Briefly: Inhibition of PTH-induced resorption of 45Ca from chick fetal bones in culture (antiresorptive activity in vitro). Type of data set: cell-based. To be noted: for T/C Ratio: PTH-induced 45Ca resorption, 96 h culture. On the procedure:
Test Procedure for Evaluation of Antiosteoporosis (Antiresorptive) Activity in Vitro:
Test solutions of the compounds of the present invention are prepared in appropriate solvents in concentration range of 5 millimolar to 400 millimolar, most preferably in concentrations of 20 millimolar. 5 μl of each concentration are used for evaluation of antiresorptive activity in vitro. In control experiments, 5 μl of appropriate solvent is used in lieu of test compound. Femur bones are isolated from chick embryos on day 11 post-ovulation. The adhering soft connective tissue is completely removed. Each femur bone is then placed in a drop of phosphate buffered saline (PBS) and is transferred to BGJb culture medium containing ^45CaCl2 and incubated for 2 h. Labeled femur bones are washed 2-3 times with PBS and transferred to BGJb medium containing parathyroid hormone and cultured for 96 h in the presence or absence of the compound of invention or the vehicle in BGJb medium. Contralateral femur of each fetus serves as corresponding control. Culture medium with the respective treatment in each well is changed after 48 h. On termination of the culture at 96 h, bones are transferred to 0.1 N HCl for 24 h. Radioactivity due to ^45Ca in the spent medium collected at 48 and 96 h of culture and HCl extract at 96 h of culture is quantified by Liquid Scintillation Spectrophotometer in 10 ml of the scintillation fluid. Bone resorbing activity is expressed as percentage of ^45Ca released into the culture medium and the effect of the compound of invention as percent of the corresponding contra-lateral control or T/C ratio as shown below:
Appropriate solvents are selected from solvents like water, normal saline, phosphate buffered saline, phosphate buffer, DMSO alone or in a suitable combination thereof.
It was devoid of any pos-coital antifertility and estrogenic activities in rats.

Data set [2] has as its system ovariectomized (OVX) female Sprague-Dawley rats. Briefly: Antiosteoporosis activity in vivo: bone mineral density in ovariectomized rats. The settings on record: oral once daily days 1-30 post-ovariectomy. More on the design: species or system rat. On the procedure: Test Procedure for Evaluation of Antiosteoporosis Activity in Vivo:
(§1) The in vivo antiosteoporosis activity is evaluated in colony-bred adult (3-4 month old) female Sprague-Dawley rats or female retired breeder Sprague-Dawley rats ([…]; parity≧3). Animals are bilaterally ovariectomized (OVX) under light ether anesthesia and treated with the compound of the present invention, 17-alfa-ethynylestradiol (EE) or the vehicle once daily on days 1-30 post-ovariectomy (day 1: day of bilateral ovariectomy) by the oral route. One group consisting of females is sham operated and treated similarly with the vehicle. Animals of all the groups are autopsied 24 h after the last treatment. Before autopsy, 24 h fasting urine samples are collected in fresh containers using all-glass metabolic cages and stored at −20° C. until analyzed for calcium, phosphorus and creatinine. At autopsy, about 5 ml blood samples are collected by cardiac puncture from each rat under light ether anesthesia and serum is isolated and stored at −20° C. until analyzed for total and bone specific alkaline phosphatase, osteocalcin and calcium. Uterus of each rat is carefully excised, gently blotted, weighed and fixed for histology. Representative sections (5 μm) from each uterus are stained with haematoxylin and eosin. Femur and tibia of each rat are then dissected free of adhering tissue, fixed in 70% ethanol in physiological saline and stored at −20° C. until Bone Mineral Density (BMD) measurement. Before autopsy, whole body scan of each rat for measurement of BMD is performed on an Hologic QDR-4500A fan-beam densitometer, calibrated daily with Hologic hydroxyapatite anthropomorphic spine phantom using manufacturer provided software for small animals. BMD measurement of isolated bones is performed using identical regions of interest. Serum total alkaline phosphatase, osteocalcin, calcium ion content and urinary calcium and creatinine are estimated colorimetrically using commercial kits (Table 2).

Data set [3] has the same test system. Briefly: Anti-hyperlipidaemic activity: blood serum total cholesterol in OVX rats. The settings on record: days 1-30; for Total Cholesterol: blood serum. Type of data set: in vivo, rat. As for the experimental part:
Test Procedure for Evaluation of Anti-Hyperlipidaemic Activity:
The in vivo anti-hyperlipidaemic activity is evaluated in colony-bred adult (3-4 month old) female Sprague-Dawley rats or female retired breeder Sprague-Dawley rats ([…]; parity≧3). Animals are bilaterally ovariectomized (OVX) under light ether anesthesia and treated with the compound of the present invention, 17-alfa-ethynylestradiol (EE) or the vehicle once daily on days 1-30 post-ovariectomy (day 1: day of bilateral ovariectomy) by the oral route. One group consisting of females is sham operated and treated similarly with the vehicle. Animals of all the groups are autopsied 24 h after the last treatment. At autopsy, about 5 ml blood samples are collected by cardiac puncture from each rat under light ether anesthesia and serum is isolated and stored at −20° C. until analyzed for total cholesterol. The total cholesterol concentration is measured by a timed-end point method using a Beckman Synchron CX autoanalyser. In the reaction, cholesterol estrase hydrolyses cholesterol esters to free cholesterol and fatty acids. Free cholesterol is oxidized to cholestene-3-one and H2O2 by cholesterol oxidase. Peroxidase catalyses the reaction of H2O2 with 4-amino antipyrine and phenol to produce a colored quinoneimine product. Absorbance is recorded at 520 nm (Table 3).

For data set [4], the system named is retired breeder OVX rats. Description: Estrogen agonistic activity: uterine weight and morphometry in retired breeder OVX rats. Type of data set: in vivo, rat. As for the experimental part:
as §1
(§2) For image analysis in estrogen agonistic activity evaluation studies, paraffin sections (6 μm thick) of the uterus stained with haematoxylin and eosin were analyzed microscopically. To determine changes in uterine tissue components, areas of whole uterus and endometrium and the thickness of uterine epithelium were measured using a computer-image analysis system (BioVis, Expert Vision, India). Briefly, microscopic images of uterus acquired through a CCD camera were loaded in to the image analysis program and spatially calibrated against a stage micrometer image taken at the same magnification. Using thresholding and line tools, the regions for measurements were selected and the area (mm^2) of whole uterine transection excluding the luminal space, the area (mm^2) of the endometrium only, and the thickness (μm) of luminal epithelial lining were measured. Luminal epithelial thickness data was the average of measurements made at 6 randomly selected sites of the lining (Table 7).

Data set [5] deals with immature OVX rats. Description: Estrogen agonistic activity: uterine weight and morphometry in immature OVX rats. Type of data set: in vivo, rat. On the procedure: Test Procedure for Evaluation of Estrogen Agonistic Activity:
Twenty-one-day-old immature female rats are bilaterally ovariectomized under light ether anesthesia and, after post-operative rest for 7 days, are randomized into different treatment groups. Each rat receives the compound of the invention once daily for 3 consecutive days on days 28-30 of age. A separate group consisting of animals receiving only the vehicle for similar duration serves as control. At autopsy 24 h after the last treatment on day 31 of age, vaginal smear of each rat is taken and uterus is carefully excised, gently blotted, weighed and fixed for histology and histomorphometry using image analysis. Premature opening of vagina, cornification of vaginal epithelium, increase in uterine fresh weight, total uterine and endometrial area and uterine luminal epithelial cell height are taken as parameters for evaluation of estrogen agonistic activity in comparison to rats of vehicle control group (Table 6).
as §2

Data set [6] relates to immature OVX rats. Briefly: Estrogen antagonistic activity: inhibition of EE-induced uterine weight gain in immature OVX rats. The class given is in vivo, rat. To be noted: daily dose 10 mg/kg with 0.02 mg/kg 17-alfa-ethynylestradiol, 3 days. On the procedure: Test Procedure for Evaluation of Estrogen Antagonistic Activity:
Twenty-one-day-old immature female rats are bilaterally ovariectomized under light ether anesthesia and after post-operative rest for 7 days, are randomized into different treatment groups. Each rat receives the compounds of the invention and 0.02 mg/kg dose of 17-alfa-ethynylestradiol in 10% ethanol-distilled water once daily for 3 consecutive days on days 28-30 of age. A separate group consisting of animals receiving only 17-alfa-ethynylestradiol (0.02 mg/kg) in 10% ethanol-distilled water for similar duration are used for comparison. At autopsy on day 31 of age, vaginal smear of each rat is taken and uterus is carefully excised, gently blotted, weighed and fixed for histology and histomorphometry using image analysis. Inhibition in 17-alfa-ethynylestradiol-induced premature opening of vagina, cornification of vaginal epithelium, increase in uterine fresh weight, total uterine and endometrial area and uterine luminal epithelial cell height are taken as parameters for evaluation of estrogen antagonistic activity (Table 8).

Data set [7] concerns MCF-7 cells. Briefly: Antiproliferative/cytotoxic activity in cultured MCF-7 cells (SRB assay). To be noted: 48 h incubation. In general terms: The SRB assay estimates cell density from bound dye.

With `O=C(c1ccc(OCCN2CCCCC2)cc1)c1c(-c2ccc(O)cc2)sc2cc(O)ccc12` [Raloxifene, reference compound], the T/C in data set [1] (chick foetal bone assay, concentration not stated) came to 0.6.
As a reminder, the melting point is the temperature, or range, at which the solid turns liquid. As to `CS(=O)(=O)c1ccc(C(=O)c2cccc3ccccc23)cc1` [Example 2, (4-Methylsulfonylphenyl)-naphth-1-yl-ketone], the melting point was 150 °C.
Consider `CS(=O)(=O)c1ccc(C(=O)c2ccc3ccccc3c2)cc1` [Example 8, (4-Methylsulfonylphenyl)-naphth-2-yl-ketone], for which the melting point was determined as 160 °C.
For `CSc1ccc(C(O)c2cccc3ccccc23)cc1` (stereo not drawn) [Example 3, (4-Methylthiophenyl)-naphth-1-yl-carbinol], the melting point was found to be 80 °C. The “T/C Ratio” value in data set [1] (50 μM) amounted to 1.41.
In turn, `CS(=O)(=O)c1ccc(C(O)c2cccc3ccccc23)cc1` (stereo not drawn) [Example 4, (4-Methylsulfonylphenyl)-naphth-1-yl-carbinol] gave a melting point of 160 °C. Further, the “T/C Ratio” value in data set [1] (100 μM) was 0.97.
As for `C#C[C@]1(O)CC[C@H]2[C@@H]3CCc4cc(O)ccc4[C@H]3CC[C@@]21C` [EE, 17-alfa-ethynylestradiol, reference compound], the “Increase in BMD (g/cm^2): Percent of OVX + vehicle treatment group, Percent Increase” value in data set [2] (Femur Global) worked out at 16.1%; in data set [2] (Femur Neck), 13.5%; in data set [2] (Tibia Global) it was 3.8%; in data set [2] (Tibia proximal), 25.2%. Also, the “Total Cholesterol” value in data set [3] (daily dose 0.50 mg/kg oral) was <5 mg/dL. The “Endometrium Epithelial Cell Height” value in data set [4] (daily dose 0.5 mg/kg) is listed as 46.36 μm; in data set [5] (daily dose 0.01 mg/kg) it was 33.65 μm. Besides, the “Endometrium Total Area” value in data set [4] (daily dose 0.5 mg/kg) turned out to be 4.07 mm^2; in data set [5] (daily dose 0.01 mg/kg), 0.57 mm^2. Besides, the “Increase in uterine weight: Percent of OVX + vehicle treatment group, Percent Increase” value in data set [4] (daily dose 0.5 mg/kg) is 260%; in data set [5] (daily dose 0.01 mg/kg) it was 419%. The “Uterus Total Area” value in data set [4] (daily dose 0.5 mg/kg) is given as 6.86 Mm^2; in data set [5] (daily dose 0.01 mg/kg), 1.21 Mm^2.
Turning to `CCSc1ccc(C(=O)c2cccc3ccccc23)cc1` [Example 11, (4-Ethylthiophenyl)-naphth-1-yl-ketone], the “T/C Ratio” value in data set [1] (100 μM) is 0.77.
Take `CS(=O)(=O)c1ccc(C(O)c2ccc3ccccc3c2)cc1` (stereo not drawn) [Example 9, (4-Methylsulfonylphenyl)-naphth-2-yl-carbinol]: the melting point was found to be 100 °C. For the same molecule, in data set [1] (100 μM), the “T/C Ratio” value was found to be 1.15.
Consider `CSc1ccc(C(=O)c2cccc3ccccc23)cc1` [Example 1, (4-Methylthiophenyl)-(naphth-1-yl)-ketone], for which the “T/C Ratio” value in data set [1] (25 μM) is 0.77; in data set [1] (50 μM), 0.60; in data set [1] (100 μM) it was 0.44. Besides, the “Percent inhibition in EE induced uterine weight gain” value in data set [6] is on record as 32%. Further, the “Increase in BMD (g/cm^2): Percent of OVX + vehicle treatment group, Percent Increase” value was 8% in data set [2] (Femur Global), 13% in data set [2] (Femur Neck), 3.7% in data set [2] (Tibia Global) and 13.8% in data set [2] (Tibia proximal). In data set [3] (daily dose 10 mg/kg oral), the “Total Cholesterol” value was 20.00 mg/dL. Besides, in data set [3] (daily dose 10 mg/kg oral), the “% Change in blood serum total cholesterol concentration” value stood at 21.94%. In data set [7], the LC50 entry is on record as “Inactive”. Further, the results for the “Endometrium Epithelial Cell Height” value in data set [4] (daily dose 10 mg/kg) and in data set [5] (daily dose 10 mg/kg) were 9.63 μm and 7.16 μm, respectively. The “Endometrium Total Area” value in data set [4] (daily dose 10 mg/kg) is given as 0.37 mm^2; in data set [5] (daily dose 10 mg/kg) it was 0.085 mm^2. In addition, the “Increase in uterine weight: Percent of OVX + vehicle treatment group, Percent Increase” value in data set [4] (daily dose 10 mg/kg) is listed as 41%; in data set [5] (daily dose 10 mg/kg), 16%. Moreover, the “Uterus Total Area” value in data set [4] (daily dose 10 mg/kg) is 1.38 Mm^2; in data set [5] (daily dose 10 mg/kg) it was 0.105 Mm^2.
